Some test systems named below: HL-60; MDA-N; SF-295; HOP-92; HCT-116; HT-29; K562; HOP-62; UO-31; IGROV-1; T47D; U-251; OVCAR-8; SK-MEL-28; CCRF-CEM; NCI-H460; SW-620; NCI/ADR-RES; OVCAR-5; SR.
Experiment in all cases: NCI tumour cell line growth inhibition, 48 h

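Results reflect a 48-hour exposure of cells in 96-well plates to compound at five concentrations. GI50 = concentration required for 50% inhibition of growth.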 Active and inactive are the calls of the source. Rule as the data show it: active = GI50 up to about 1.1 µM and inactive = higher. Square brackets hold non-standard residues; d marks the D form. Peptide text beside a SMILES is read from it. * marks the point of attachment. ξ: configuration not given here. ξD = NC(CC(=O)O)C(=O)O; Ac3c = NC1(C(=O)O)CC1; Boc = CC(C)(C)OC(=O)*; OtBu = CC(C)(C)O*

For `COC(=O)Nc1nc2cc(NS(=O)(=O)c3ccc(Cl)cc3)ccc2[nH]1`, the GI50 in the test with HL-60 was 4.15 µM (inactive); in the test with MDA-N, 2.18 µM (inactive); in the test on SF-295, 4.45 µM (inactive); in the test on HOP-92, 1.84 µM (inactive); in the test on HCT-116, 2.45 µM (inactive); with HT-29, 4.26 µM (inactive). For the same compound, the GI50 with K562 is 6.3 µM (inactive); in the test on HOP-62, 10.7 µM (inactive); in the test with UO-31 it was 11.7 µM (inactive); with IGROV-1, 2.59 µM (inactive); with T47D, 19.1 µM (inactive); with U-251, 12.2 µM (inactive). The GI50 in the test with OVCAR-8 was 13 µM (inactive); with SK-MEL-28, 6.79 µM (inactive); with CCRF-CEM, 4.35 µM (inactive); with NCI-H460 it was 5.98 µM (inactive); with SW-620, 5.11 µM (inactive); in the test with NCI/ADR-RES, 8.59 µM (inactive). Further, the GI50 in the test on OVCAR-5 was 17.9 µM (inactive).

Consider `O=[N+]([O-])/C(C(Cl)=C(Cl)Cl)=C(/Nc1cccc2cccnc12)n1nnc2ccccc21`, for which the GI50 with MDA-N was 13.9 µM (inactive); with SF-295, 17.9 µM (inactive); with HCT-116 it was 19.3 µM (inactive); in the test on HT-29, 17.7 µM (inactive); in the test on K562, 6.41 µM (inactive); in the test on HOP-62, 19.2 µM (inactive). In addition, the GI50 was 15.8 µM (inactive) with UO-31; 19 µM (inactive) with T47D; 13.8 µM (inactive) in the test on OVCAR-8; 18.4 µM (inactive) with SK-MEL-28; 2.88 µM (inactive) in the test on CCRF-CEM; 31.3 µM (inactive) in the test on NCI-H460. The results for the GI50 in the test with SW-620, with NCI/ADR-RES and with OVCAR-5 were 15.8 µM (inactive), 21.8 µM (inactive) and 21.6 µM (inactive), respectively.

For the compound `NC(=O)NNCc1ccccc1`, the GI50 is > 100 µM (inactive) in the test on HL-60; > 100 µM (inactive) in the test on MDA-N; > 100 µM (inactive) in the test with SF-295; 51.5 µM (inactive) in the test with HOP-92; > 100 µM (inactive) with HCT-116; > 100 µM (inactive) with HT-29. In addition, the GI50 in the test with K562, in the test with HOP-62, in the test with UO-31, in the test on IGROV-1, in the test with T47D and with U-251 was > 100 µM (inactive) each time. Also, the GI50 in the test on OVCAR-8, in the test on CCRF-CEM, with NCI-H460, with SW-620, in the test with NCI/ADR-RES and in the test with OVCAR-5 was > 100 µM (inactive) each time.

For the compound `COC(=O)C1(NC(=O)C(CC(=O)OC(C)(C)C)NC(=O)OC(C)(C)C)CC1` (stereo unspecified) (Boc-[ξD](OtBu)-[Ac3c]-OMe), the GI50 in the test on MDA-N, in the test on SF-295, in the test with HCT-116, in the test with HT-29, in the test on K562 and in the test with HOP-62 was > 100 µM (inactive) in each case. For the same compound, the GI50 with UO-31, with IGROV-1, in the test on T47D, in the test on U-251, in the test on OVCAR-8 and in the test on SK-MEL-28 was > 100 µM (inactive) throughout. Moreover, the GI50 in the test with CCRF-CEM, in the test on NCI-H460, in the test with SW-620, in the test on NCI/ADR-RES and with OVCAR-5 was > 100 µM (inactive) in each case.

Regarding `Nc1nc(Cl)c(/N=N/c2ccc(Cl)cc2)c(NCC2(CO)CCC(CCc3ccccc3)C2)n1` (stereo unspecified), the GI50 is 4.14 µM (inactive) in the test on HL-60; 11.4 µM (inactive) in the test on MDA-N; 11 µM (inactive) in the test with SF-295; 11.1 µM (inactive) in the test on HOP-92; 6.11 µM (inactive) in the test on HCT-116; 12.1 µM (inactive) with HT-29. Besides, the GI50 in the test with K562 was 0.841 µM (active); in the test on HOP-62, 13.7 µM (inactive); in the test on UO-31 it was 2.1 µM (inactive); in the test on IGROV-1 it was 6.22 µM (inactive); in the test on T47D, 3.94 µM (inactive); in the test on U-251 it was 14.1 µM (inactive). Further, the GI50 was 5.4 µM (inactive) in the test on OVCAR-8; 14.2 µM (inactive) in the test with SK-MEL-28; 1.21 µM (inactive) with CCRF-CEM; 12.7 µM (inactive) in the test with NCI-H460; 3.92 µM (inactive) in the test with SW-620; 4.56 µM (inactive) in the test with NCI/ADR-RES. In addition, the GI50 with OVCAR-5 is 15.4 µM (inactive).

For the compound `CCOc1ncn(-c2ccc(NC(=S)NC3OC(CO)C(O)C(O)C3O)cc2)n1` (stereo unspecified), the GI50 in the test with HL-60, in the test with MDA-N, in the test with SF-295, in the test on HOP-92, in the test with HCT-116 and with HT-29 was > 100 µM (inactive) each time. The GI50 in the test with SR, in the test with K562, in the test on HOP-62, with UO-31, with IGROV-1 and with T47D was > 100 µM (inactive) each time. The GI50 in the test on U-251, in the test with OVCAR-8, with SK-MEL-28, in the test with CCRF-CEM, in the test on NCI-H460 and with SW-620 was > 100 µM (inactive) throughout. Also, in the test on OVCAR-5, the GI50 was > 100 µM (inactive).

For the compound `C=C(C)CC1(O)C(=O)C(OCC)=C1OCC` (stereo unspecified), the GI50 with HL-60 was > 100 µM (inactive); in the test with MDA-N it was > 100 µM (inactive); in the test with SF-295, > 100 µM (inactive); in the test with HOP-92 it was 48.6 µM (inactive); in the test on HCT-116 it was > 100 µM (inactive); with HT-29 it was > 100 µM (inactive). Further, the GI50 in the test with HOP-62, in the test on UO-31, in the test with IGROV-1, in the test with T47D, in the test on U-251 and in the test on OVCAR-8 was > 100 µM (inactive) throughout. Moreover, the GI50 with SK-MEL-28, in the test on CCRF-CEM, in the test on NCI-H460, with SW-620, with NCI/ADR-RES and with OVCAR-5 was > 100 µM (inactive) throughout.

On to `CCCCCCCCCC(O)CC(=O)c1c(O)cccc1O` (stereo unspecified), for which the GI50 is 22.2 µM (inactive) in the test on HL-60; 22 µM (inactive) in the test with MDA-N; 19.4 µM (inactive) in the test on SF-295; 25.4 µM (inactive) with HOP-92; 20.1 µM (inactive) in the test with HCT-116; 19.5 µM (inactive) with HT-29. In addition, the GI50 in the test on K562 is 22.1 µM (inactive); with HOP-62, 16 µM (inactive); with UO-31, 19.3 µM (inactive); with IGROV-1, 18.8 µM (inactive); in the test with T47D, 25.2 µM (inactive); in the test on U-251 it was 36.7 µM (inactive). The GI50 was 18.8 µM (inactive) in the test on OVCAR-8; 41.5 µM (inactive) in the test with SK-MEL-28; 46.3 µM (inactive) with CCRF-CEM; 39.5 µM (inactive) in the test on SW-620; 18.4 µM (inactive) in the test with NCI/ADR-RES; 18.7 µM (inactive) in the test on OVCAR-5.

Take `COC1CC(OC2CCC3(C)C(=CCC4C3C(OC(C)=O)C(OC(=O)CC(C)C)C3(C)C(C(C)=O)CCC43O)C2)OC(C)C1OC1CC(OC)C(OC2CC(OC)C(OC3OC(C)C(O)C(OC)C3O)C(C)O2)C(C)O1` (stereo unspecified): the GI50 is 14.9 µM (inactive) with HL-60; 32.1 µM (inactive) in the test on MDA-N; 33 µM (inactive) in the test on SF-295; 22.5 µM (inactive) in the test with HOP-92; 26.7 µM (inactive) with HCT-116; 19.9 µM (inactive) with HT-29. The GI50 in the test on SR was 31.5 µM (inactive); in the test with K562 it was 36.6 µM (inactive); with HOP-62 it was > 100 µM (inactive); in the test on UO-31, 26.1 µM (inactive); in the test with IGROV-1, 32.4 µM (inactive); in the test with T47D it was 38.2 µM (inactive). Moreover, the GI50 in the test with U-251 is 37.8 µM (inactive); with OVCAR-8 it was 29.2 µM (inactive); in the test on SK-MEL-28, 36 µM (inactive); in the test on CCRF-CEM it was 22.6 µM (inactive); with NCI-H460, 28.7 µM (inactive); in the test with SW-620, 31.3 µM (inactive). Further, the GI50 in the test with OVCAR-5 is 86.7 µM (inactive).

As to `NC1CCCCC1.O=P(O)(O)C(O)/C=C/c1ccccc1` (stereo unspecified), the GI50 in the test on HL-60, in the test with MDA-N, in the test with SF-295, in the test on HOP-92, in the test on HCT-116 and with HT-29 was > 100 µM (inactive) throughout. Also, the GI50 with K562, in the test with HOP-62, in the test on UO-31, in the test on IGROV-1, in the test on T47D and in the test with U-251 was > 100 µM (inactive) throughout. Besides, the GI50 in the test on OVCAR-8, in the test on SK-MEL-28, in the test with NCI-H460, in the test on SW-620, with NCI/ADR-RES and in the test on OVCAR-5 was > 100 µM (inactive) each time.

For the compound `Brc1ccc2c(c1)-c1nc3nc4c(cc3cc1CC2)CCc1ccc(Br)cc1-4`, the GI50 with MDA-N, with SF-295, in the test with HOP-92, with HCT-116, with K562 and with HOP-62 was > 100 µM (inactive) throughout. The GI50 in the test with UO-31, in the test on IGROV-1, with T47D, in the test with U-251, in the test on OVCAR-8 and in the test on SK-MEL-28 was > 100 µM (inactive) throughout. Also, the GI50 in the test with NCI-H460, in the test with SW-620, with NCI/ADR-RES and in the test on OVCAR-5 was > 100 µM (inactive) throughout.

Source of the values: ChEMBL document CHEMBL1201862, “PubChem BioAssay data set” (2004).
